Data on three compounds can be found in US20090298942A1, “ANIMAL COMPOSITION” (priority 2002, published 2009).

The test deals with dogs. Nature of the test: Example 2: success at learning the discrimination task (Test B) after twenty two days on the assigned diet. To be noted: 0.3% amino acid added to control food product with approximately 2% leucine. The format is in vivo.
Procedure: The baseline learning capability of each dog was determined in a discrimination task (Test A) allowing the dogs to be divided into two groups, slow and fast learners. The slow and fast learners were randomly assigned to diet A, B, C or D. Dogs remained on their assigned diet for a period of twenty two days and their learning capability was then re evaluated with another discrimination task (Test B). The time to successfully learn the discrimination task, the total number of discrimination attempts, and the proportion of correct responses by each dog was recorded.
Test B was introduced in stages in a similar way to Test A. Again each dog was in the test area for up to an hour depending on the length of time that it took for the dog to complete the task.
Stage 1 The food preference test was repeated where necessary.
Stage 2 The dog was taken down the side of each box and encouraged to enter the food drop area from the rear by throwing food forward into the area.
Stage 3 The handler stood in front of one of the boxes and encouraged the dog to go down the side and into the box on its own. As its head reached the end of the entrance passage food was dropped by hand over the front panel into the area. This was repeated at random with both boxes.
Stage 4 The dog was placed centrally about 2.5 m back from the boxes and a red light was activated. The handler walked forward towards the light encouraging the dog to go forward along the side passage and into the box alone where a food pellet was dropped through the hatch as the dog's head reached the end of the entrance passage.
Stage 5 The dog was placed centrally approximately 3 m away from the equipment. A light was activated and the dog allowed time to scan the equipment. The dog was then released to make its own decision about which box to approach. If and when it entered the correct box a food pellet was dropped into the area.
These five introductory stages took, on average, 20 minutes, depending on the initial reaction of the dog to the surroundings. […]
For the compound `CC[C@H](C)[C@H](N)C(=O)O` [isoleucine], the “improvement in canine learning” value is given as “Statistically significant improvements in canine learning were not demonstrated”.

With `CC(C)C[C@H](N)C(=O)O` [leucine], the “improvement in canine learning” value is on record as “measurable improvement in canine learning”.

Take `N[C@@H](Cc1c[nH]c2ccccc12)C(=O)O` [tryptophan]: the “improvement in canine learning” value is reported as “Statistically significant improvements in canine learning were not demonstrated”.
